Patent US9585871B2, “Method for treating and curing leishmaniosis using fexinidazole” (Merial Limited, priority 2013, dated 2017)
Values joined by “and” are separate entries in the source; they are usually repeats but may differ in a detail not shown here. Equal entries are not always repeated.

Legend:
Assay type in all cases: in vivo
L. infantum [1] = experiment: Clinical study in dogs infected with L. infantum: Overall Biological Score; set-up: key: additive score of severity of hematology/chemistry changes; conditions: Glucantime 100 mg/kg dNMA SC or Fexinidazole 60 mg/kg PO once daily Days 0-27
Method: (§1) In a clinical study, dogs infected with L. infantum were treated with meglumine antimoniate (GLUCANTIME®, Merial) as a positive control, or FEX (Table 5). Eight blocks of two animals were formed based antibody titers and biological scores. Six dogs in each group were naturally infected by housing them in an endemic area for two years and two dogs in each group were artificially infected by intravenous administration of a known quantity of parasites recovered from the spleen of an infected dog.
(§2) The first group (FEX) was compared to the second group, which was treated with 27 mg/kg GLUCANTIME (meglumine antimoniate, or 100 mg/kg of dNMA) “GLU”), over 28 days.
(§3) Variables. The Clinical Score is an additive score of various clinical signs (body condition, lymphadenopathy, splenomegaly, appetite, behavior, mucous membrane color, dermatopathology, ocular signs, digestive signs, arthropathy) evaluated before treatment and on Days 7, 14, 21, 28, 57, 184, 219, 254, 282, 310, 345, 400 and 436. The Overall Biological Score is an additive score based on the severity of changes in hematology/chemistry values (creatinine, urine protein/creatinine, Hct, globulin, ALAT), evaluated pretreatment and on Days 28, 57, and 181. The L. infantum immunofluorescent antibody titers (IFAT) were determined from samples collected before treatment and on Days 28, 57, and 181. Finally, quantitative PCR (qPCR) for L. infantum was conducted on spleen aspirates collected before treatment and on Days 28, 57, 142, 184, and 373.

L. infantum [2] = experiment: Clinical study in dogs infected with L. infantum: Clinical Score; set-up: key: additive score of clinical signs (body condition, lymphadenopathy, etc.); conditions: Glucantime 100 mg/kg dNMA SC or Fexinidazole 60 mg/kg PO once daily Days 0-27
Method: as §1, §2, §3

L. infantum [3] = experiment: Clinical study in dogs infected with L. infantum: overall outcome (cure, relapse, removal of animals)
Method: as §1
The first group (FEX) was compared to the second group, which was treated with 27 mg/kg GLUCANTIME (meglumine antimoniate, or 100 mg/kg of dNMA) “GLU”), over 28 days. […]

L. infantum [4] = experiment: Clinical study in dogs infected with L. infantum: qPCR on spleen aspirates; conditions: spleen aspirate, Glucantime 100 mg/kg dNMA SC or Fexinidazole 60 mg/kg PO once daily Days 0-27
Method: as §1, §2, §3

[5] = Day −7 (before treatment), individual dogs

meglumine antimoniate [Glucantime] was tested, and the “Overall Biological Score” value (L. infantum [1]; Day 28, individual dogs) was 2 (2×) and 1 and 4 and 3 (2×) and 2^1, the “Overall Biological Score, group average” value (L. infantum [1]; Day 28) was 2.4 and the “Overall Biological Score” value (L. infantum [1]; Day 57, individual dogs) was 1 (4×) and 4 (2×). The “Overall Biological Score, group average” value (L. infantum [1]; Day 57, Group 1 includes D28 data of Block 3 dog carried forward) was 2.0^3, the “Overall Biological Score” value (L. infantum [1]; Day 181, individual dogs) was 3 (2×) and 2 (2×) and 0 and 6 and the “Overall Biological Score, group average” value (L. infantum [1]; Day 181, Group 1 includes D28 data of Block 3 dog carried forward) was 2.7. For the same substance, the “Overall Biological Score” value (L. infantum [1]; Day −14 (pretreatment), individual dogs) was 6 and 1 (2×) and 3 (2×) and 7 and 2 (2×), the “Overall Biological Score, group average” value (L. infantum [1]; Day −14 (pretreatment)) was 3.1 and the “Clinical Score, group average” value (L. infantum [2]; Day 7) was 1.3. The “Clinical Score, group average” value (L. infantum [2]; Day 14) was 1.1, the “Clinical Score, group average” value (L. infantum [2]; Day 21) was 2.1 and the “Clinical Score” value (L. infantum [2]; Day 28, individual dogs) was 0. The “Clinical Score, group average” value (L. infantum [2]; Day 28, Group 1 includes D21 data of Block 3 dog carried forward) was 1.33, the “Clinical Score” value (L. infantum [2]; Day 57, individual dogs) was 0 and the “Clinical Score, group average” value (L. infantum [2]; Day 57, Group 1 includes D21 data of Block 3 dog carried forward) was 1.33. For the same substance, the “Clinical Score” value (L. infantum [2]; Day 184, individual dogs) was 0, the “Clinical Score, group average” value (L. infantum [2]; Day 184) was 0.0 and the “Clinical Score” value (L. infantum [2]; Day 219, individual dogs) was 0. For the same substance, the “Clinical Score, group average” value (L. infantum [2]; Day 219) was 0.0, the “Clinical Score” value (L. infantum [2]; Day 254, individual dogs) was 3 and 0 (2×) and the “Clinical Score, group average” value (L. infantum [2]; Day 254) was 1.0. For the same substance, the “Clinical Score” value (L. infantum [2]; Day 282, individual dogs) was 3 and 0 (2×), the “Clinical Score, group average” value (L. infantum [2]; Day 282) was 1.0 and the “Clinical Score” value (L. infantum [2]; Day 310, individual dogs) was 2 and 0 (2×). For the same substance, the “Clinical Score, group average” value (L. infantum [2]; Day 310) was 0.7, the “Clinical Score” value (L. infantum [2]; Day 345, individual dogs) was 0 and the “Clinical Score, group average” value (L. infantum [2]; Day 345) was 0.0. The “Clinical Score” value (L. infantum [2]; Day 400, individual dogs) was 1 and 0 (2×), the “Clinical Score, group average” value (L. infantum [2]; Day 400) was 0.3 and the “Clinical Score” value (L. infantum [2]; Day 436, individual dogs) was 4 and 0 (2×). The “Clinical Score, group average” value (L. infantum [2]; Day 436) was 1.3, the “Clinical Score” value (L. infantum [2]; [5]) was 2 (3×) and 0 (4×) and 3 and the “Clinical Score, group average” value (L. infantum [2]; Day −7 (before treatment)) was 1.1. The “removal of animal due to deterioration” value (L. infantum [3]; Group 1 Block 3 dog, Glucantime 100 mg/kg dNMA SC once daily Days 0-27) was “^1Dog Group 1 Block 3 removed on Day 28 due to continued deterioration”, the “removal of animal due to toxicity” value (L. infantum [3]; Group 1 Block 8 dog, Glucantime 100 mg/kg dNMA SC once daily) was “^2Dog Group 1 Block 8 removed on Day 20 due to GLUCANTIME toxicity” and the “removal of animals due to lack of efficacy” value (L. infantum [3]; Group 1 Blocks 2, 4, 7 dogs, Glucantime 100 mg/kg dNMA SC once daily Days 0-27) was “^3Dogs Group 1 Blocks 2, 4, 7 removed after Day 184 due to lack of GLUCANTIME efficacy”. For the same substance, the “qPCR for L. infantum” value (L. infantum [4]; Day 28, individual dogs) was 4.04 log copies/mL and 3.73 log copies/mL and 5.93 log copies/mL and 5.63^3 log copies/mL and BLOQ^1 (BLOQ = Below Level of Quantification = < log 3.64 copies/mL spleen aspirate) and 5.77 log copies/mL and 6.40^2 log copies/mL and 5.81 log copies/mL, the “qPCR for L. infantum” value (L. infantum [4]; Day 57, individual dogs) was “BLOQ (BLOQ = Below Level of Quantification = < log 3.64 copies/mL spleen aspirate) (3×) and 4.93 log copies/mL and 5.14 log copies/mL and 4.78 log copies/mL” and the “qPCR for L. infantum” value (L. infantum [4]; Day 142, individual dogs) was “BLOQ (BLOQ = Below Level of Quantification = < log 3.64 copies/mL spleen aspirate) (3×) and 4.73 log copies/mL and 5.57 log copies/mL and 3.94 log copies/mL”. The “qPCR for L. infantum” value (L. infantum [4]; Day 184, individual dogs) was “BLOQ (BLOQ = Below Level of Quantification = < log 3.64 copies/mL spleen aspirate) (2×) and 3.97 log copies/mL and 5.53 log copies/mL and 7.01 log copies/mL and 5.62 log copies/mL”, the “qPCR for L. infantum” value (L. infantum [4]; Day 373, individual dogs) was “BLOQ (BLOQ = Below Level of Quantification = < log 3.64 copies/mL spleen aspirate) and 5.23 log copies/mL and 3.83 log copies/mL” and the “qPCR for L. infantum” value (L. infantum [4]; [5]) was 5.81 log copies/mL and 4.38 log copies/mL and 6.40 log copies/mL and 5.10 log copies/mL and 5.12 log copies/mL and 6.87 log copies/mL and 6.17 log copies/mL and 6.70 log copies/mL.
